Test results: patent US20230049576A1, “GLUTATHIONE-CONTAINING COMPOSITION” (priority 2019, published 2023)

Legend:
thrombin = thrombin (Homo sapiens, UniProt P00734); experiment: Measurement of thrombin activity (Rox prothrombin kit, chromogenic substrate, absorbance 405 nm); type: biochemical; conditions: glutathione 500 μg/ml to 2.5 mg/ml added to 40 ng/ml prothrombin; thrombin activator and substrate added; absorbance 405 nm every 40 seconds; FIG. 1
Procedure: A Rox prothrombin kit (Distributor: Rossix) was used for the measurement of thrombin activity. After glutathione (Distributor: Nacalai Tesque, Inc.) was added to a 40 ng/ml solution of prothrombin (Distributor: Invitrogen) at a concentration of 500 μg/ml to 2.5 mg/ml, the thrombin activator and thrombin substrate included in the kit were added and thrombin activity was measured.

cultured keratinocytes = conditions: Cryj1 100 ng/ml with glutathione 5 μg/ml
Procedure: Culture keratinocytes (Distributor: Kurabo) were cultured in the EPILIFE-KG2 medium (Distributor: Kurabo) for two days in a humidified atmosphere at 37° C. For the confluent culture, the medium was replaced with EPILIFE-KG2+Ca1.8 mM (Distributor: Kurabo), and then after 28 to 48 hours of incubation, with EPILIFE-KG2 +Cal containing 5 μM of Fura2 AM (Distributor: life technology), following by one hour of culturing. Then, it was replaced with a buffer (pH 7.4) containing NaCl 150 mM, KCI 5 mM, CaCl2 1.8 mM, MgCl2 1.2 mM, HEPES 25 mM, and D-glucose 10 mM, and Cryj1 (Distributor: HAYASHIBARA) was added to the buffer at the concentration of 100 ng/ml alone, or with glutathione (Distributor: Nacalai Tesque, Inc.) (5 μg/ml). Fluorescence was measured with a fluorescence microscope to measure changes in the intracellular calcium concentration.
The value of intracellular calcium concentration about 2 minutes after the addition of Cryj1 was calculated and quantified using the Aqua Cosmos software.

[1] = system: epidermal permeation barrier; conditions: previous study, Non-patent Document 2, Patent Document 1; cited from earlier work

With `N[C@@H](CCC(=O)N[C@@H](CS)C(=O)NCC(=O)O)C(=O)O` [Glutathione, glutathione] the “thrombin activity (substrate decomposition rate)” value (thrombin) was “inhibit thrombin activity in a dose-dependent manner”, the “calcium imaging over time (excitation of fluorescence)” value (cultured keratinocytes; FIG. 2) was “suppresses the excitation” and the “intracellular calcium concentration about 2 minutes after the addition of Cryj1” value (cultured keratinocytes; FIG. 3) was “significantly suppresses the calcium response elicited by Cryj1”.
In the case of `NC[C@H]1CC[C@H](C(=O)O)CC1` [tranexamic acid], the “delay in thrombin-mediated recovery of the epidermal permeation barrier induced by Cryj1” value [1] is given as “blocks the delay in thrombin-mediated recovery of the epidermal permeation barrier”.
